From patent US12410160B2 (Gilead Sciences, Inc., priority 2021, dated 2025)
Read-outs that look alike come from different tables or passages of the source.

Key:
human OATP1B1 = human OATP1B1 (Homo sapiens (Human), UniProt Q9Y6L6); experiment: In Vitro Inhibition Assessment with Human OATP1B1 Transporter; type: in vitro ADME; settings: HEK293-OATP1B1 cells, probe substrate pravastatin
Procedure: In Vitro Inhibition Assessment with Human OATP1B1 and OATP1B3 Transporters Assay Protocol
The purpose of this assay was to assess the inhibition potential of test article (TA) toward human OATP1B1 and OATP1B3 transporters in vitro using cell lines transfected with the individual transporters. The assays used clinically relevant probe substrate pravastatin and a known positive control inhibitor rifampicin. HEK293 mock, HEK293-OATP1B1, and HEK293-OATP1B3 transfected cells were seeded onto CellCoat Poly-D-Lysine coated 96 well black cell culture plates with clear bottoms (Greiner bio-one, Cat. #655946) at a density of 70,000 cells/well and cultured to confluency overnight. Seeding media used was Dulbecco's Modification of Eagle's Medium (DMEM—with GlutaMAX high glucose; Gibco, Cat #: 10569-010) supplemented with 10% fetal bovine serum, 0.1 mM non-essential amino acids, 100 U/mL penicillin, and 100 μg/mL streptomycin. On assay day, media were removed from the assay plates and cells were washed with Hanks' Balanced Salt Solution (HBSS Buffer) (Corning, Cat. #21-023-CV). All TAs and reference inhibitor were serially diluted in DMSO to create spiking solutions at concentrations of 250-fold of final assay concentrations (final DMSO content 0.4%). Cells were preincubated with HBSS buffer containing test compounds for 15 minutes. After the removal of HBSS buffer, dose solution containing TA or reference inhibitor and probe substrate were added to the HEK293-OATP1B1, HEK-293-OATP1B3 and its associated mock cell plate, respectively. The co-incubation period of TAs with the corresponding probe substrate for all plates was 5 minutes. An aliquot of the dose solution was removed from the HEK293 mock cell plates and analysed for dose recovery. Cells were then washed three times with ice cold HBSS buffer and then immediately extracted with methanol:water (70:30 v:v) containing internal standard labetolol (30 nM). The supernatants were evaporated to dryness on injection plates and reconstituted in 80% water containing 20% acetonitrile and 0.1% formic acid for analysis by liquid chromatography with tandem mass spectrometry (LC-MS-MS).
Fractional transport activities were calculated from the equation: Activity %=(A−B)/(C−D)×100
• A: translocated amount of substrate in the presence of TA on transfected cells • B: translocated amount of substrate in the presence of TA on Mock cells • C: translocated amount of substrate in the presence of solvent on transfected cells • D: translocated amount of substrate in the presence of solvent on Mock cells
GraphPad Prism 7.0 (GraphPad Software Inc., San Diego, CA) was used for curve fitting and determination of reaction parameters. In uptake transporter inhibition assays, the IC50 (μM) was calculated, where applicable. IC50 was defined as the concentration of TA required to inhibit maximal activity by 50%.

[1] = molecular target: KHK-C expressed in NRK-52E cells (Homo sapiens (Human), UniProt P50053); experiment: KHK-C Cell-based Assay (EC50), NRK CTG, fructose-mediated ATP-depletion
Chain of KHK-C expressed in NRK-52E cells (P50053 whole entry): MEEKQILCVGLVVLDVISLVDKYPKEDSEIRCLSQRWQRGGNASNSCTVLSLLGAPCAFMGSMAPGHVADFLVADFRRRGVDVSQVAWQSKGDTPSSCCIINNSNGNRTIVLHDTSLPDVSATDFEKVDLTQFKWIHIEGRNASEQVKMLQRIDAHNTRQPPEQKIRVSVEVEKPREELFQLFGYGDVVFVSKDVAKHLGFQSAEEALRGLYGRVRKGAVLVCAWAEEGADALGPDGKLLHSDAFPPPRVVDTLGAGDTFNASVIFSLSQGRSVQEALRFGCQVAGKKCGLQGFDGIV

human KHK-C = human KHK-C (Homo sapiens (Human), UniProt P50053); experiment: KHK Biochemical Assay (IC50), ADP-Glo, KHK-C; settings: average of at least two separate assays
Chain of human KHK-C (P50053 whole entry): as above
Summary of the method: (§1)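 His-tagged enzyme expressed in BL21 (DE3), Ni-NTA purified. Compounds, serially diluted 1:3 in DMSO, pre-incubated 30 min with enzyme in 50 mM Hepes pH 7.4, 140 mM KCl, 5 mM MgCl2, 0.01% Triton-X, then ATP and fructose added; 4 h at room temperature. ADP formation read by ADP-Glo luminescence.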

human KHK-A = human KHK-A (Homo sapiens (Human), UniProt P50053); experiment: KHK Biochemical Assay (IC50), ADP-Glo, KHK-A; settings: average of at least two separate assays
Chain of human KHK-A (P50053 other isoform, or with tags, fused parts or gaps): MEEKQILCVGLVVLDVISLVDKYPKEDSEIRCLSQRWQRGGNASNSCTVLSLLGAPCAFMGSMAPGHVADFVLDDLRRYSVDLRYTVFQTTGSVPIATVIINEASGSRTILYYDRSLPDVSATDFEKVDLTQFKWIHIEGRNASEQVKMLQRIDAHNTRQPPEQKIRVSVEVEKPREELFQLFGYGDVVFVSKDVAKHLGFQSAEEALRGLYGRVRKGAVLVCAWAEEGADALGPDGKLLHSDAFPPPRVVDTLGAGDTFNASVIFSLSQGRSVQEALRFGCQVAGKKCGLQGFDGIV
Summary of the method: as §1

HepG2 cells = experiment: F1P Cell-Based Assay (EC50), 13C6-fructose-1-phosphate in HepG2 cells (cell culture medium or 50% human plasma); settings: Homo sapiens
[2] = HepG2, HepG2 cells, 50% human plasma, read-out: F1P 50% HP EC50
[3] = HepG2, read-out: F1P 10% FBS EC50, HepG2 cells, cell culture medium (10% FBS)

Chain of human OATP1B1 (Q9Y6L6 whole entry): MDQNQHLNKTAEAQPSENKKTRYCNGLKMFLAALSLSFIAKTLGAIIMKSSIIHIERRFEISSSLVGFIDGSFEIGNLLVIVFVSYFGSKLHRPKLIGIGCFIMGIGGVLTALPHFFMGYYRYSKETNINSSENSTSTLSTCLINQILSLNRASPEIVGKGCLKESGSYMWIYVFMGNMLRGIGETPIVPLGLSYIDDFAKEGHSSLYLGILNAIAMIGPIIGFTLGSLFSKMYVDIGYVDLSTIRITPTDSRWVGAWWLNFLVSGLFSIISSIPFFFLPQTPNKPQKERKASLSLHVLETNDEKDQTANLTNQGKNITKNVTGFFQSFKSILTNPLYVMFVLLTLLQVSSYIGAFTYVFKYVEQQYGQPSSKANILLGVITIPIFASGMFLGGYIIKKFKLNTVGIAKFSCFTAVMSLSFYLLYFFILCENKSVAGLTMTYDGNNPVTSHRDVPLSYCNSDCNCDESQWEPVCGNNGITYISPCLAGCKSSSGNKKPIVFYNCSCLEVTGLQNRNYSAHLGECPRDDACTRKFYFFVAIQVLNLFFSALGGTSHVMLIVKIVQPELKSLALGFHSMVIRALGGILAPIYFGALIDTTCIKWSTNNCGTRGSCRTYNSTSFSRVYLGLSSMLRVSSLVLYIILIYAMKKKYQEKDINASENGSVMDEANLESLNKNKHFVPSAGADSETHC

Row | IC50 (human OATP1B1) [nM] | EC50 [1] [nM] | IC50 (human KHK-C; ADP-Glo) [nM] | IC50 (human KHK-A; ADP-Glo) [nM] | IC50 (human KHK-C) [nM] | EC50 (HepG2 cells; [2]) [nM] | EC50 (HepG2 cells; [3]) [nM] | IC50 (human KHK-A) [nM] | SMILES | EC50 (HepG2 cells; HepG2, read-out: F1P 10% FBS EC50) [nM] | EC50 (HepG2 cells; HepG2, read-out: F1P 50% HP EC50) [nM]
1 | 7400 | 36.9 | 10.1 | 25.6 |  |  |  |  | C[C@H]1[C@H](O)CN1c1nc2c(c(-c3ccc(C4(N)COC4)cc3)n1)CCC2 [Example 159, (2S,3R)-1-(4-(4-(3-aminooxetan-3-yl)phenyl)-6,7-dihydro-5H-cyclopenta[d]pyrimidin-2-yl)-2-methylazetidin-3-ol] |  | 
2 | 1260 | 82.4 | 47.8 | 57.2 |  |  |  |  | C[C@H]1[C@H](O)CN1c1nc2c(c(-c3cccc(CNS(C)(=O)=O)c3)n1)CCC2 [Example 285] |  | 
3 | 284 | 3.5 | 1.7 | 4.9 |  |  |  |  | C[C@H]1CCN1c1nc(-c2ccc3c(=O)[nH]ccc3c2)c2c(n1)C(F)(F)CC2 [Example 317, (S)-6-(7,7-difluoro-2-(2-methylazetidin-1-yl)-6,7-dihydro-5H-cyclopenta[d]pyrimidin-4-yl)isoquinolin-1(2H)-one] |  | 
4 | 13300 | 76.4 | 7.4 | 5.1 |  |  |  |  | C[C@H]1[C@H](O)CN1c1nc(-c2cccc(S(N)(=O)=O)c2)c2c(n1)C(F)(F)CC2 [Example 322, 3-(7,7-difluoro-2-((2S,3R)-3-hydroxy-2-methylazetidin-1-yl)-6,7-dihydro-5H-cyclopenta[d]pyrimidin-4-yl)benzenesulfonamide] |  | 
5 | 4380 | 4900 |  |  | 20.3 |  |  |  | C[C@H]1[C@H](O)CN1c1nc(-c2cnc3c(c2)OCCNC3=O)c2c(n1)C(F)(F)CC2 [Example 599] |  | 
6 | 798 | 70.8 |  |  | 2.6 |  |  |  | C[C@H]1[C@H](O)CN1c1nc(-c2cc3cc[nH]c(=O)c3s2)c2c(n1)C(F)(F)CC2 [Example 643, 2-[7,7-difluoro-2-[(2S,3R)-3-hydroxy-2-methyl-azetidin-1-yl]-5,6-dihydrocyclopenta[d]pyrimidin-4-yl]-6H-thieno[2,3-c]pyridin-7-one] |  | 
7 | 1750 | 52.2 |  |  | 7 |  |  |  | C[C@H]1[C@H](O)CN1c1nc(-c2cc3c(c(C(N)=O)c2)CCO3)c2c(n1)C(F)(F)CC2 [Example 756, 6-[7,7-difluoro-2-[(2S,3R)-3-hydroxy-2-methyl-azetidin-1-yl]-5,6-dihydrocyclopenta[d]pyrimidin-4-yl]-2,3-dihydrobenzofuran-4-carboxamide] |  | 

Further lines, the compound ahead of its results:

Row | SMILES | IC50 (human OATP1B1) [nM] | EC50 [1] [nM] | IC50 (human KHK-C; ADP-Glo) [nM] | IC50 (human KHK-A; ADP-Glo) [nM] | IC50 (human KHK-C) [nM] | EC50 (HepG2 cells; [2]) [nM] | EC50 (HepG2 cells; [3]) [nM] | IC50 (human KHK-A) [nM] | EC50 (HepG2 cells; HepG2, read-out: F1P 10% FBS EC50) [nM] | EC50 (HepG2 cells; HepG2, read-out: F1P 50% HP EC50) [nM]
8 | C[C@H]1CCN1c1nc2c(c(-c3cccc(CCC(=O)O)c3)n1)CCC2 [Example 4, (S)-3-(3-(2-(2-methylazetidin-1-yl)-6,7-dihydro-5H-cyclopenta[d]pyrimidin-4-yl)phenyl)propanoic acid] | 928 | 310 | 46.1 | 41.4 |  |  |  |  |  | 
9 | C[C@H]1CCN1c1nc2c(c(-c3cccc(C(=O)O)c3)n1)CCC2 [Example 9, (S)-3-(2-(2-methylazetidin-1-yl)-6,7-dihydro-5H-cyclopenta[d]pyrimidin-4-yl)benzoic acid] | 448 | 611 | 68.6 | 48.9 |  |  |  |  |  | 
10 | C[C@H]1[C@H](O)CN1c1nc(-c2ccc(C(N)=O)c(OC(F)F)c2)c2c(n1)C(F)(F)CC2 [Example 182, 4-(7,7-difluoro-2-((2S,3R)-3-hydroxy-2-methylazetidin-1-yl)-6,7-dihydro-5H-cyclopenta[d]pyrimidin-4-yl)-2-(difluoromethoxy)benzamide] | 2840 | 156 | 10.2 |  |  |  |  |  |  | 
11 | C[C@H]1[C@H](O)CN1c1nc(-c2ccc3c(c2)C(=O)N(C)C3)c2c(n1)C(F)(F)CC2 [Example 236, 6-(7,7-difluoro-2-((2S,3R)-3-hydroxy-2-methylazetidin-1-yl)-6,7-dihydro-5H-cyclopenta[d]pyrimidin-4-yl)-2-methylisoindolin-1-one] | 1390 | 31.3 |  |  |  |  |  |  |  | 
12 | C[C@H]1[C@H](O)CN1c1nc2c(c(-c3ccc4c(=O)[nH]ccc4c3)n1)CCC2 [Example 373, 6-[2-[(2S,3R)-3-hydroxy-2-methyl-azetidin-1-yl]-6,7-dihydro-5H-cyclopenta[d]pyrimidin-4-yl]-2H-isoquinolin-1-one] | 379 | 53.8 | 20.4 | 54 |  |  |  |  |  | 
13 | C[C@H]1CCN1c1nc2c(c(-c3cc(F)c4c(=O)[nH]ccc4c3)n1)CCC2 [Example 382, 8-fluoro-6-[2-[(2S)-2-methylazetidin-1-yl]-6,7-dihydro-5H-cyclopenta[d]pyrimidin-4-yl]-2H-isoquinolin-1-one] | 149 | 13.8 | 6.3 | 16.1 |  |  |  |  |  | 
14 | C[C@H]1CCN1c1nc2c(c(-c3cc4c(N)nccc4s3)n1)CCC2 [Example 446, 2-[2-[(2S)-2-methylazetidin-1-yl]-6,7-dihydro-5H-cyclopenta[d]pyrimidin-4-yl]thieno[3,2-c]pyridin-4-amine] | 1810 | 5 |  |  | 3.4 |  |  |  |  | 
15 | C[C@H]1[C@H](O)CN1c1nc2c(c(-c3cc4cc[nH]c(=O)c4s3)n1)CCC2 [Example 450, 2-[2-[(2S,3R)-3-hydroxy-2-methyl-azetidin-1-yl]-6,7-dihydro-5H-cyclopenta[d]pyrimidin-4-yl]-6H-thieno[2,3-c]pyridin-7-one] | 992 | 298 |  |  | 9.3 |  |  |  |  | 
16 | C[C@H]1[C@H](O)CN1c1nc(-c2ccc3c(c2)CC[C@@H]3NS(C)(=O)=O)c2c(n1)C(F)(F)CC2 [Example 472, N—((S)-5-(7,7-difluoro-2-((2S,3R)-3-hydroxy-2-methylazetidin-1-yl)-6,7-dihydro-5H-cyclopenta[d]pyrimidin-4-yl)-2,3-dihydro-1H-inden-1-yl)methanesulfonamide] | 6220 |  |  |  | 0.9 | 39.4 | 13.3 | 12.7 |  | 
17 | C[C@H]1[C@H](O)CN1c1nc(-c2ccc3c(c2)COC[C@@H]3NS(C)(=O)=O)c2c(n1)C(F)(F)CC2 [Example 487, N—((R)-7-(7,7-difluoro-2-((2S,3R)-3-hydroxy-2-methylazetidin-1-yl)-6,7-dihydro-5H-cyclopenta[d]pyrimidin-4-yl)isochroman-4-yl)methanesulfonamide] | 9770 |  |  |  | 1.6 | 72.4 | 11.9 | 14 |  | 
18 | C[C@H]1[C@H](O)CN1c1nc(-c2ccc3c(c2)S(=O)(=O)NC3)c2c(n1)C(F)(F)CC2 [Example 598] | 3140 | 15.7 |  |  | 2.4 |  |  |  |  | 
19 | C[C@H]1[C@H](O)CN1c1nc(-c2ccc(S(C)(=N)=O)cc2)c2c(n1)C(F)(F)CC2 (stereo partly drawn) [Example 715, (4-(7,7-difluoro-2-((2S,3R)-3-hydroxy-2-methylazetidin-1-yl)-6,7-dihydro-5H-cyclopenta[d]pyrimidin-4-yl)phenyl)(imino)(methyl)-λ^6-sulfanone] | 30500 | 258 |  |  | 35.2 |  |  |  |  | 
20 | C[C@H]1[C@H](O)CN1c1nc(-c2ccc3c(c2)S(=N)(=O)CCNC3)c2c(n1)C(F)(F)CC2 (stereo partly shown) [Example 725] | > 40000 |  |  |  | 0.9 |  |  | 2.2 | 37.7 | 23.5
21 | C[C@H]1[C@H](O)CN1c1nc(-c2ccc(C3(O)CS(=O)(=O)C3)cc2)c2c(n1)C(F)(F)CC2 [Example 735] | 2870 | 52.1 |  |  | 6.5 |  |  |  |  | 
